{"source": "paper PMC3990583", "about": "(PLoS ONE, 2014)", "key": {"SRPKs (SRPK1 and SRPK2)": {"target": "SRPKs (SRPK1 and SRPK2)", "test": "In vitro kinase assays, SRPK family as a whole", "format": "biochemical, human"}, "[1]": {"target": "Clks (Clk1, Clk2, and Clk3)", "test": "In vitro kinase assays, Clk family as a whole", "format": "biochemical, human", "details": "range over Clk1, Clk2, Clk3; read-out: IC50 on Clks (all three Clks, Clk1-3)"}, "recombinant human SRPK1": {"target": "recombinant human SRPK1 (Homo sapiens, UniProt Q96SB4)", "sequence (Q96SB4 whole entry)": "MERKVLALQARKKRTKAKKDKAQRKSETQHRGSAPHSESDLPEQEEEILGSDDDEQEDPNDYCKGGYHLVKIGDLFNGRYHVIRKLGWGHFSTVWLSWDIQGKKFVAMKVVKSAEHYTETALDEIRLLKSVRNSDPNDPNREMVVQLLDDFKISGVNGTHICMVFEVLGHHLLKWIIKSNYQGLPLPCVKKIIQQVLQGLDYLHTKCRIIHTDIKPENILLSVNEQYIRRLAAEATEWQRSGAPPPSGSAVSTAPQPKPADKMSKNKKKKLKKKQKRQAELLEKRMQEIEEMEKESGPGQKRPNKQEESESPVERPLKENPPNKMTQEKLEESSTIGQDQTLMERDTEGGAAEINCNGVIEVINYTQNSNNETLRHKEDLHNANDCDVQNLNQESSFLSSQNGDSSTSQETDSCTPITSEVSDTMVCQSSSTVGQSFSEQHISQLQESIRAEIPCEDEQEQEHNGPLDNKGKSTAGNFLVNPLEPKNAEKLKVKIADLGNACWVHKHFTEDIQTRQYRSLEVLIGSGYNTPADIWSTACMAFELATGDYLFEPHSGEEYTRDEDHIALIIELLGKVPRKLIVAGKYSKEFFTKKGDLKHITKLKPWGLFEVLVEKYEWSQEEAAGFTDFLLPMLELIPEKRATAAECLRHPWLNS", "test": "In vitro kinase assay (Life Technologies), SRPK1", "format": "biochemical", "details": "two independent assays"}, "recombinant human SRPK2": {"target": "recombinant human SRPK2 (Homo sapiens, UniProt P78362)", "sequence (P78362 whole entry)": "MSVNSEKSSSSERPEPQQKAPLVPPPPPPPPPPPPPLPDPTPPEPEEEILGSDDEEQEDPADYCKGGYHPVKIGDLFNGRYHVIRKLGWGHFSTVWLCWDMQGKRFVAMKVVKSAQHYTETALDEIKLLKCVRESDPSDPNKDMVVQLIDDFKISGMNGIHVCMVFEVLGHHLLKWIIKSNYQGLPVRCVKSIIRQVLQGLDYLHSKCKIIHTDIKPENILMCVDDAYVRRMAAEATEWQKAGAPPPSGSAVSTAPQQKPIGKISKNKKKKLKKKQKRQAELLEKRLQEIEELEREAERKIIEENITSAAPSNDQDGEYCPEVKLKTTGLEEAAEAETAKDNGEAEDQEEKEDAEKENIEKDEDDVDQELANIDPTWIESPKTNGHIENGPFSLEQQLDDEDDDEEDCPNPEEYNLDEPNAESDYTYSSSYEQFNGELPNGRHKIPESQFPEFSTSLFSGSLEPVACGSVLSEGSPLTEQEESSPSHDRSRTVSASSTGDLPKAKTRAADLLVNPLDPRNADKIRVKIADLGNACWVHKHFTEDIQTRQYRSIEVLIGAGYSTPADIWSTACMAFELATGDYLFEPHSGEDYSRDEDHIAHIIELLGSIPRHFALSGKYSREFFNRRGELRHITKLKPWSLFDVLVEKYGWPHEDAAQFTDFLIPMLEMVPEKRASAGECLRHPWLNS", "test": "In vitro kinase assay (Life Technologies), SRPK2", "format": "biochemical", "details": "two independent assays"}, "Huh7 cells": {"system": "Huh7 cells", "test": "RT-PCR of Bcl-X and RON alternative splicing in Huh7 cells", "format": "cell-based, human", "details": "12 hours", "protocol": "(§1) To analyze the effect of compounds on pre-mRNA splicing, 293T, Huh7, and HepG2 cells were treated with the indicated concentrations. Total RNAs were extracted using the TRIzol reagent (Invitrogen) followed by cDNA synthesis using the Omniscript RT kit (Qiagen) and an oligo-dT primer. PCR was performed at 95°C for 30 s, 55°C for 30 s, and 72°C for 1 min for 35 cycles using GoTaq Green Master Mix (Promega). Quantitative real-time PCR analysis was performed using the BioRad IQ SYBR Green Supermix. All gene expression experiments were performed independently at least twice."}, "recombinant human Clk3": {"target": "recombinant human Clk3 (Homo sapiens, UniProt P49761)", "sequence (P49761 whole entry)": "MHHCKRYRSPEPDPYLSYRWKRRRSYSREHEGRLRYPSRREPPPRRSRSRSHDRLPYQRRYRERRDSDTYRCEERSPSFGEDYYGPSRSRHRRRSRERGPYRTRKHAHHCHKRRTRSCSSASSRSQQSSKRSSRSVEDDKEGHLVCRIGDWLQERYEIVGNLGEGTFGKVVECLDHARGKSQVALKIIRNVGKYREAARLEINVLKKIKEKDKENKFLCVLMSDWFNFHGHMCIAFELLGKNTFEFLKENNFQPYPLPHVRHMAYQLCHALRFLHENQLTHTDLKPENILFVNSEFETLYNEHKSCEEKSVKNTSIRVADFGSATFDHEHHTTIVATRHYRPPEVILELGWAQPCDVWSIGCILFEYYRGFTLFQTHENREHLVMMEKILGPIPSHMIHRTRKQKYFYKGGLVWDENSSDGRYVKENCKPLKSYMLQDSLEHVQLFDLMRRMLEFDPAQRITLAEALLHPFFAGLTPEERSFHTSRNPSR", "test": "In vitro kinase assay (Life Technologies), Clk3", "format": "biochemical"}, "HepG2 cells": {"system": "HepG2 cells", "test": "Quantitative real-time PCR of gluconeogenic genes in HepG2 cells", "details": "12 hours"}, "293T cells [2]": {"system": "293T cells", "test": "Affymetrix exon array, transcriptome-wide splicing in 293T cells", "format": "cell-based, human", "details": "10 µM, 12 hours", "protocol": "The fragmented and end-labeled single-stranded cDNAs were prepared and hybridized to Affymetrix-GeneChip Human Exon 1.0 ST arrays (Affymetrix). Affymetrix Expression Console Software was used to perform quality assessment. Affymetrix exon array data was analyzed using GeneSpring 12.6 inclusive of GX (Agilent Technologies). Three independent experimental samples were examined.\nTranscriptome analysis with the Affymetrix GeneChip Human Exon 1.0 ST Array, which contains multiple probes per exon, allowed us to search for variations at the exon level. […] Further analysis characterized the 8,968 affected exons into 1,555 included exons and 7,413 skipped exons. To validate this observation, we randomly chose 15 exons from those affected by more than 2-fold and examined alterations in alternative splicing using RT-PCR of the same total RNAs used in the exon array experiments. Representative mRNAs containing selected exons are illustrated by heat maps, and all of the selected exons were denoted by black underlines (Figure 2A). […] Different exons are commonly affected differentially by a stimulus or splicing inhibition, depending on cis-acting elements on exon/intron and activities of trans-acting factors.\n(§2) The cDNA was synthesized and further processed for exon array as described in Materials and Methods. All experiments were performed three times, and representative heat maps of selected transcripts from the exon arrays are shown. Selected exons for each mRNA are highlighted with black underlines. (B) RT-PCR analysis was performed for the ELL2, SPAST, QRSL1, PRPSAP2, CPEB1, USP38, TRIP4, CTDSPL2, WDFY1 and ZCCHC2 genes with the same RNA used for the exon arrays. The exonic structure of the RT-PCR products and the exonic location of PCR primers are indicated with tandem rectangles and arrowheads, respectively. PCR products were quantified using ImageJ software, and the ratios of skipped product (skipped/total PCR product) were calculated."}, "293T cells [3]": {"system": "293T cells", "test": "RT-PCR analysis of alternative pre-mRNA splicing in 293T cells", "format": "cell-based, human", "protocol": "Cells (293T, Huh7, and HepG2) were cultured in Dulbecco's modified Eagle's medium (DMEM) containing 10% fetal bovine serum (FBS; Hyclone) supplemented with 1% penicillin and streptomycin. […] The 293T cells were transfected in 6-well plates with siRNAs (Bioneer) at a final concentration of 100 nM using Lipofectamine RNAiMax (Invitrogen) according to the manufacturer's instructions.\nas §1, §2\nTotal levels of AKT were also monitored as a control. hnRNP A1 was used as a loading control. (B) Alternatively spliced CK2 α′, ELL2, CPEB1, PRPSAP2, and QRSL1 mRNAs were examined by RT-PCR. PCR products of normal and alternatively spliced isoforms are denoted by black arrowheads. An extra PCR product of the QRSL1 gene appeared in TBB-treated samples and is denoted by an asterisk. All experiments were performed twice, and representative data for each are presented."}, "293T cells [4]": {"system": "293T cells", "test": "Quantitative real-time PCR of CK2 α′ mRNA levels in 293T cells", "format": "cell-based, human", "details": "qPCR, primers to exon 7, Figure S1", "protocol": "as §1\nFigure S1. […] Quantitative real-time PCR was performed with total RNA from DMSO- and CX-4945-treated 293T cells. The amount of normal CK2 α’ mRNA was measured using primers corresponding to exon 6, and the total amount of normal CK2 α’ mRNA and the smaller-sized CK2 α’ mRNA was measured using primers corresponding to exon 7. The values for DMSO-treated samples were set to 1, and the relative amounts were calculated. The average and SD values were determined from three independent experiments."}, "Clks": {"system": "Clks", "test": "In vitro kinase assays (Millipore), CX-4945 compared with TG-003 on Clks", "format": "biochemical, human", "details": "Figure S6", "protocol": "All experiments were performed twice."}, "[5]": {"system": "SR protein phosphorylation", "test": "Western blot of phosphorylated SR proteins (mAb 1H4) in 293T cells", "format": "cell-based, human", "details": "for alteration of SR protein phosphorylation: 100 µM, 12 hour, Figure S5"}, "[6]": {"system": "CK2-mediated phosphorylation of AKT at S129", "test": "Western blot of AKT(S129) phosphorylation (CK2-specific site) in 293T cells", "format": "cell-based, human", "details": "12 hours"}, "[7]": {"system": "Clk1 and Clk4 over Clk2 and Clk3", "parameters": "method as in PMID 15010457", "details": "cited from earlier work"}}}
{"compound": "O=C(O)c1ccc2c(c1)nc(Nc1cccc(Cl)c1)c1ccncc12", "note": "[CX-4945]", "values": [{"measurement": "IC50", "setting": "SRPKs (SRPK1 and SRPK2)", "value": "> 1000", "unit": "nM"}, {"measurement": "IC50", "setting": "[1]", "value": "3 to 90", "unit": "nM"}, {"measurement": "IC50", "setting": "recombinant human SRPK1", "value": 1230, "unit": "nM"}, {"measurement": "IC50", "setting": "recombinant human SRPK2", "value": 1110, "unit": "nM"}, {"measurement": "normal alternative splicing of Bcl-X and RON pre-mRNAs", "setting": "Huh7 cells", "value": "alteration of normal alternative splicing"}, {"measurement": "IC50", "setting": "recombinant human Clk3", "value": 90, "unit": "nM"}, {"measurement": "G6Pase and PEPCK gene expression", "setting": "HepG2 cells", "value": "induced"}, {"measurement": "included exons among the affected exons", "setting": "293T cells [2]", "value": "1,555 exons"}, {"measurement": "skipped exons among the affected exons", "setting": "293T cells [2]", "value": "7,413 exons"}, {"measurement": "genes affected at the whole-transcript level", "setting": "293T cells [2]; 82 out of 18,673 genes", "value": 0.44, "unit": "%"}, {"measurement": "amount of PCR product corresponding to normal CK2 α′", "setting": "293T cells [3]; 10 µM, 12 hours, compared with DMSO", "value": "reduced"}, {"measurement": "splicing of Clk1/Sty pre-mRNA", "setting": "293T cells [3]; 12 hours, 293T", "value": "changes in splicing"}, {"measurement": "time of appearance of new product CK2 α′△ (exon6-skipped)", "setting": "293T cells [3]; time course following exposure, 293T", "value": "as early as 2 or 3"}, {"measurement": "total amount of normal CK2 α′ and smaller-sized CK2 α′ mRNA", "setting": "293T cells [4]", "value": "not altered"}, {"measurement": "overall efficacies on Clks compared with TG-003", "setting": "Clks", "value": "much stronger than those of TG-003"}, {"measurement": "regulatory efficacy on SR protein phosphorylation compared with TG-003", "setting": "[5]; 1 µM CX-4945 versus 10 µM TG-003, 1 hour", "value": "stronger than that of TG-003"}, {"measurement": "levels of phosphorylated SRSF4, SRSF6, SRSF5, and SRSF1", "setting": "[5]; 1 and 10 µM, 1 hour", "value": "considerably decreased"}, {"measurement": "phosphorylation of SRSF3", "setting": "[5]; 1 and 10 µM, 1 hour", "value": "not affected"}, {"measurement": "upper band of phospho-SRSF6 (hyperphosphorylated SRSF6)", "setting": "[5]; 1 and 10 µM, 1 hour", "value": "dramatically increased"}, {"measurement": "dose dependence of effect on phosphorylation of SR proteins", "setting": "[5]; 1 versus 10 µM, 1 hour", "value": "dose-dependent"}, {"measurement": "CK2-mediated phosphorylation of AKT at S129", "setting": "[6]; 10 µM", "value": "efficiently blocked"}]}
{"compound": "Brc1c(Br)c(Br)c2[nH]nnc2c1Br", "note": "[TBB, 4,5,6,7-tetrabromobenzotriazole]", "values": [{"measurement": "changes in alternative splicing of selected genes (CK2 α′, ELL2, CPEB1, PRPSAP2, QRSL1)", "setting": "293T cells [3]; 100 µM, 12 hours", "value": "negligible effect"}, {"measurement": "extra PCR product of QRSL1 (cryptic splicing, 3′ part of exon 11)", "setting": "293T cells [3]; 100 µM, 12 hours", "value": "induced the appearance of an additional PCR product"}, {"measurement": "alteration of SR protein phosphorylation", "setting": "[5]", "value": "did not induce the alteration"}, {"measurement": "CK2-mediated phosphorylation of AKT at S129", "setting": "[6]; 100 µM", "value": "efficiently blocked"}]}
{"compound": "O=C(O)/C=C/c1cc(Br)c(Br)c(Br)c1Br", "note": "[TBCA, tetrabromocinnamic acid]", "values": [{"measurement": "changes in alternative splicing of selected genes (CK2 α′, ELL2, CPEB1, PRPSAP2, QRSL1)", "setting": "293T cells [3]; 100 µM, 12 hours", "value": "negligible effect"}, {"measurement": "alteration of SR protein phosphorylation", "setting": "[5]", "value": "did not induce the alteration"}, {"measurement": "CK2-mediated phosphorylation of AKT at S129", "setting": "[6]; 100 µM", "value": "efficiently blocked"}]}
{"compound": "CCN1/C(=C/C(C)=O)Sc2ccc(OC)cc21", "note": "[TG-003]", "values": [{"measurement": "preferential efficacy on Clk1 and Clk4 over Clk2 and Clk3", "setting": "[7]", "value": "at least 5 fold"}]}
